Measurements published in publication PMC11765512 (International Journal of Molecular Sciences, 2025).

How the values were obtained:
[1] = system: S-RBD-ACE2 interaction, AH109 (pAD-S-RBD+pBD-ACE2); type: cell-based, SARS-CoV-2 S-RBD, human ACE2 (in yeast)
[2] = molecular target: S-RBD-ACE2 interaction, AH109 (pAD-S-RBD+pBD-ACE2) (UniProt P0DTC2+Q9BYF1); type: cell-based, SARS-CoV-2 S-RBD, human ACE2 (in yeast)

Row | SMILES | Difference of MICs among AH109 (pAD-S-RBD+pBD-ACE2) and AH109 (pAD-T+pBD-53) [1] | MIC against AH109 (pAD-S-RBD+pBD-ACE2) [2]
1 | O=C(c1ccc(N2CCCCS2(=O)=O)cc1)N1CCN(C(=O)c2ccco2)CC1 [IMB-1C] | 2 fold | –
2 | Cc1ccc(N(Sc2ccc(Cl)cc2)C2C=CS(=O)(=O)C2)cc1 (stereo not drawn) [IMB-4A] | 2 fold | –
3 | CC(C)CCC[C@@H](C)[C@H]1CC[C@H]2[C@@H]3CC[C@H]4C[C@@H](O[C@@H]5O[C@H](COS(=O)(=O)O)[C@@H](O[C@H]6O[C@H](COS(=O)(=O)O)[C@@H](O[C@H]7O[C@H](COS(=O)(=O)O)[C@@H](O[C@H]8O[C@H](COS(=O)(=O)O)[C@@H](OS(=O)(=O)O)[C@H](OS(=O)(=O)O)[C@H]8OS(=O)(=O)O)[C@H](OS(=O)(=O)O)[C@H]7OS(=O)(=O)O)[C@H](OS(=O)(=O)O)[C@H]6OS(=O)(=O)O)[C@H](OS(=O)(=O)O)[C@H]5OS(=O)(=O)O)CC[C@]4(C)[C@H]3CC[C@]12C [Pixatimod, reference compound] | – | 1.56 μg/mL
